Measured values from PubChem BioAssay AID1053172 (The Scripps Research Institute Molecular Screening Center, 2014).
The source made the active and inactive calls. The rule behind the calls is not given here.

Biological target: HIV-1 integrase / human LEDGF/p75 complex
Assay: blockers of LEDGF/p75-dependent integrase activity – biochemical, TR-FRET, dose response (AID 1053172)
Conditions: TR-FRET integrase-LEDGF/p75 DNA integration

IC50 | SMILES
> 36.5 µM (inactive) | COCCN(CCOC)Cc1c(O)ccc2c1O/C(=C\c1ccc(C)o1)C2=O
> 36.6 µM (inactive) | CCN(CC)c1ccc(N=C2C=CC(=O)C=C2NC(C)=O)cc1
> 36.5 µM (inactive) | O=C(N/N=C\C=C\c1ccc([N+](=O)[O-])o1)c1cccs1
> 36.6 µM (inactive) | NNc1cccc(C=Cc2ccccc2)cc1=O
